PubChem BioAssay AID1963430 (Molecular Pharmacology Branch, DTP, NCI, 2024)
Values joined by “and” are separate entries in the source; they are usually repeats but may differ in a detail not shown here. Identical values can stand only once. Values belong to the molecule of their own block, whether it stands above or below them.

System: 521955-158-R2-J5-PDC complex spheroid growth, % test/control
Assay: Anticancer human tumor 521955-158-R2-J5-PDC patient-derived pancreatic carcinoma cell line growth inhibition [Asc]
Details: for viability, T/C: stronger effect = lower value
Method in brief: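 Tumor cells were grown as complex spheroids with human endothelial cells (HUVEC) and human mesenchymal stem cells as stroma. Agents were tested alone and in combination, in half-log steps down from the clinical Cmax, or from 10 microM where Cmax was unknown.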

[1] = curve of first compound, second compound 0.01 µM
[2] = curve of first compound, second compound 0.0316 µM
[3] = curve of first compound, second compound 0.1 µM
[4] = curve of first compound, second compound 0.316 µM
[5] = curve of first compound, second compound 1 µM
[6] = second compound 0.01 µM, first compound 0.0316 µM
[7] = second compound 0.01 µM, first compound 0.1 µM
[8] = second compound 0.01 µM, first compound 0.316 µM
[9] = second compound 0.01 µM, first compound 1 µM
[10] = second compound 0.01 µM, first compound 3.16 µM
[11] = second compound 0.01 µM, first compound 10 µM
[12] = second compound 0.0316 µM, first compound 0.0316 µM
[13] = second compound 0.0316 µM, first compound 0.1 µM
[14] = second compound 0.0316 µM, first compound 0.316 µM
[15] = second compound 0.0316 µM, first compound 1 µM
[16] = second compound 0.0316 µM, first compound 3.16 µM
[17] = second compound 0.0316 µM, first compound 10 µM
[18] = second compound 0.1 µM, first compound 0.0316 µM
[19] = second compound 0.1 µM, first compound 0.1 µM
[20] = second compound 0.1 µM, first compound 0.316 µM
[21] = second compound 0.1 µM, first compound 1 µM
[22] = second compound 0.1 µM, first compound 3.16 µM
[23] = second compound 0.1 µM, first compound 10 µM
[24] = second compound 0.316 µM, first compound 0.0316 µM
[25] = second compound 0.316 µM, first compound 0.1 µM
[26] = second compound 0.316 µM, first compound 0.316 µM
[27] = second compound 0.316 µM, first compound 1 µM
[28] = second compound 0.316 µM, first compound 3.16 µM
[29] = second compound 0.316 µM, first compound 10 µM
[30] = second compound 1 µM, first compound 0.0316 µM
[31] = second compound 1 µM, first compound 0.1 µM
[32] = second compound 1 µM, first compound 0.316 µM
[33] = second compound 1 µM, first compound 1 µM
[34] = second compound 1 µM, first compound 3.16 µM
[35] = second compound 1 µM, first compound 10 µM
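Further: spheroids exposed to agents for 7 days before readout.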
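Wherever viability, T/C is given: 100% = DMSO vehicle control viability.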

- IC50 (curve of first compound, second compound 0.03 µM): 6.31 nM
- IC50 (curve of first compound, second compound 0.0949 µM): 2.84 nM
- IC50 (curve of first compound, second compound 0.3 µM): 5.68 nM
- IC50 (curve of first compound, second compound 0.949 µM): 6.71 nM
- IC50 (curve of first compound, second compound 3 µM): 10.1 nM
Structure (SMILES): NC(=O)C(=Cn1cnc(-c2cc(C(F)(F)F)cc(C(F)(F)F)c2)n1)c1cncnc1 + CCN1C(C(=O)NC23CCC(C(=O)O)(CC2)CC3)C(c2cccc(Cl)c2F)C2(C(=O)Nc3cc(Cl)ccc32)C12CCCCC2
- viability, T/C (second compound 0.03 µM, first compound 0.000949 µM): 57.6%
- viability, T/C (second compound 0.03 µM, first compound 0.003 µM): 62.8%
- viability, T/C (second compound 0.03 µM, first compound 0.00949 µM): 44.4%
- viability, T/C (second compound 0.03 µM, first compound 0.03 µM): 34.9%
- viability, T/C (second compound 0.03 µM, first compound 0.0949 µM): 30.7%
- viability, T/C (second compound 0.03 µM, first compound 0.3 µM): 38.5%
- viability, T/C (second compound 0.0949 µM, first compound 0.000949 µM): 103%
- viability, T/C (second compound 0.0949 µM, first compound 0.003 µM): 45.5%
- viability, T/C (second compound 0.0949 µM, first compound 0.00949 µM): 47.2%
- viability, T/C (second compound 0.0949 µM, first compound 0.03 µM): 41.7%
- viability, T/C (second compound 0.0949 µM, first compound 0.0949 µM): 33%
- viability, T/C (second compound 0.0949 µM, first compound 0.3 µM): 36.2%
- viability, T/C (second compound 0.3 µM, first compound 0.000949 µM): 76.5%
- viability, T/C (second compound 0.3 µM, first compound 0.003 µM): 51.3%
- viability, T/C (second compound 0.3 µM, first compound 0.00949 µM): 50.5%
- viability, T/C (second compound 0.3 µM, first compound 0.03 µM): 38.3%
- viability, T/C (second compound 0.3 µM, first compound 0.0949 µM): 33.6%
- viability, T/C (second compound 0.3 µM, first compound 0.3 µM): 32.8%
- viability, T/C (second compound 0.949 µM, first compound 0.000949 µM): 94.2%
- viability, T/C (second compound 0.949 µM, first compound 0.003 µM): 58.1%
- viability, T/C (second compound 0.949 µM, first compound 0.00949 µM): 47.9%
- viability, T/C (second compound 0.949 µM, first compound 0.03 µM): 42%
- viability, T/C (second compound 0.949 µM, first compound 0.0949 µM): 35.7%
- viability, T/C (second compound 0.949 µM, first compound 0.3 µM): 43.8%
- viability, T/C (second compound 3 µM, first compound 0.000949 µM): 109%
- viability, T/C (second compound 3 µM, first compound 0.003 µM): 75.6%
- viability, T/C (second compound 3 µM, first compound 0.00949 µM): 53.1%
- viability, T/C (second compound 3 µM, first compound 0.03 µM): 34.5%
- viability, T/C (second compound 3 µM, first compound 0.0949 µM): 49.9%
- viability, T/C (second compound 3 µM, first compound 0.3 µM): 45.4%

- IC50 [1]: > 10000 nM
- IC50 [2]: > 10000 nM
- IC50 [3]: > 10000 nM
- IC50 [4]: > 10000 nM
- IC50 [5]: > 10000 nM
Structure (SMILES): O=C(c1cc(Cc2n[nH]c(=O)c3ccccc23)ccc1F)N1CCN(C(=O)C2CC2)CC1 + CNC(C)C(=O)NC1CN(S(=O)(=O)c2cccc(S(=O)(=O)N3CCC4CCC(C(=O)NC(c5ccccc5)c5ccccc5)N4C(=O)C(NC(=O)C(C)NC)C3)c2)CCC2CCC(C(=O)NC(c3ccccc3)c3ccccc3)N2C1=O
- viability, T/C [6]: 74.8%
- viability, T/C [7]: 92.3%
- viability, T/C [8]: 60.6%
- viability, T/C [9]: 66.1%
- viability, T/C [10]: 73.4%
- viability, T/C [11]: 64.3%
- viability, T/C [12]: 66.8%
- viability, T/C [13]: 77.8%
- viability, T/C [14]: 98.6%
- viability, T/C [15]: 75.8%
- viability, T/C [16]: 64.9%
- viability, T/C [17]: 64.6%
- viability, T/C [18]: 71.8%
- viability, T/C [19]: 87.9%
- viability, T/C [20]: 76.4%
- viability, T/C [21]: 61.1%
- viability, T/C [22]: 74.6%
- viability, T/C [23]: 73.2%
- viability, T/C [24]: 89%
- viability, T/C [25]: 95.7%
- viability, T/C [26]: 82.1%
- viability, T/C [27]: 71.2%
- viability, T/C [28]: 71.5%
- viability, T/C [29]: 61.5%
- viability, T/C [30]: 73%
- viability, T/C [31]: 81.4%
- viability, T/C [32]: 78.8%
- viability, T/C [33]: 67.6%
- viability, T/C [34]: 62.5%
- viability, T/C [35]: 66.8%

- IC50 [1]: < 31.6 nM
- IC50 [2]: < 31.6 nM
- IC50 [3]: < 31.6 nM
- IC50 [4]: < 31.6 nM
- IC50 [5]: < 31.6 nM
Structure (SMILES): C#Cc1c(F)ccc2cc(O)cc(-c3ncc4c(N5CC6CCC(C5)N6)nc(OCC56CCCN5CC(F)C6)nc4c3F)c12 (stereo not given) + CNC(C)C(=O)NC1CN(S(=O)(=O)c2cccc(S(=O)(=O)N3CCC4CCC(C(=O)NC(c5ccccc5)c5ccccc5)N4C(=O)C(NC(=O)C(C)NC)C3)c2)CCC2CCC(C(=O)NC(c3ccccc3)c3ccccc3)N2C1=O
- viability, T/C [6]: 22.8%
- viability, T/C [7]: 22.5%
- viability, T/C [8]: 20.6%
- viability, T/C [9]: 16.3%
- viability, T/C [10]: 19.2%
- viability, T/C [11]: 18.2%
- viability, T/C [12]: 20.3%
- viability, T/C [13]: 25.8%
- viability, T/C [14]: 19.4%
- viability, T/C [15]: 13.4%
- viability, T/C [16]: 17.7%
- viability, T/C [17]: 19.9%
- viability, T/C [18]: 22.1%
- viability, T/C [19]: 16.6%
- viability, T/C [20]: 21.6%
- viability, T/C [21]: 15.7%
- viability, T/C [22]: 18.3%
- viability, T/C [23]: 17%
- viability, T/C [24]: 20.8%
- viability, T/C [25]: 17.1%
- viability, T/C [26]: 18.1%
- viability, T/C [27]: 22.8%
- viability, T/C [28]: 17.3%
- viability, T/C [29]: 13.9%
- viability, T/C [30]: 21.6%
- viability, T/C [31]: 18.7%
- viability, T/C [32]: 27.5%
- viability, T/C [33]: 26.6%
- viability, T/C [34]: 19.7%
- viability, T/C [35]: 16.8%

- IC50 (compound alone, run of 10/03/2022): > 1000 nM
- IC50 (curve of compound): > 1000 nM
Structure (SMILES): CNC(C)C(=O)NC1CN(S(=O)(=O)c2cccc(S(=O)(=O)N3CCC4CCC(C(=O)NC(c5ccccc5)c5ccccc5)N4C(=O)C(NC(=O)C(C)NC)C3)c2)CCC2CCC(C(=O)NC(c3ccccc3)c3ccccc3)N2C1=O (stereo not given)
- viability, T/C (compound 0.00316 µM): 72.5% and 68.6%

- IC50 (curve of compound): > 10000 nM
Structure (SMILES): O=C(c1cc(Cc2n[nH]c(=O)c3ccccc23)ccc1F)N1CCN(C(=O)C2CC2)CC1
- viability, T/C (compound 0.0316 µM): 80.7% and 80% and 97.9%
- viability, T/C (compound 0.1 µM): 79.6% and 89.4% and 92.2%
- viability, T/C (compound 0.316 µM): 71.8% and 89.7% and 84.1%
- viability, T/C (compound 1 µM): 62.2% and 88.6% and 85.9%
- viability, T/C (compound 3.16 µM): 76.3% and 93.4% and 74.3%
- viability, T/C (compound 10 µM): 60.8% and 63.9% and 61.5%

- IC50 [3]: < 31.6 nM
- IC50 [4]: < 31.6 nM
- IC50 [5]: < 31.6 nM
- IC50 (curve of first compound, second compound 3.16 µM): < 31.6 nM
- IC50 (curve of first compound, second compound 10 µM): > 10000 nM
Structure (SMILES): C#Cc1c(F)ccc2cc(O)cc(-c3ncc4c(N5CC6CCC(C5)N6)nc(OCC56CCCN5CC(F)C6)nc4c3F)c12 (stereo not given) + Cc1c(S(C)(=O)=O)c(-c2cc(F)cc(N3CCN(c4ccc(NS(=O)(=O)c5ccc(NC(CCN6CCC(C(=O)OCCCP(=O)(O)O)CC6)CSc6ccccc6)c(S(=O)(=O)C(F)(F)F)c5)cc4)CC3)c2)c(-c2ccc(Cl)cc2)n1C(C)C
- viability, T/C [18]: 44.7%
- viability, T/C [19]: 30.4%
- viability, T/C [20]: 38.7%
- viability, T/C [21]: 33.9%
- viability, T/C [22]: 38.5%
- viability, T/C [23]: 34%
- viability, T/C [24]: 43.6%
- viability, T/C [25]: 27.9%
- viability, T/C [26]: 33.3%
- viability, T/C [27]: 32.1%
- viability, T/C [28]: 32.5%
- viability, T/C [29]: 34.4%
- viability, T/C [30]: 31.3%
- viability, T/C [31]: 38.4%
- viability, T/C [32]: 39.3%
- viability, T/C [33]: 31.8%
- viability, T/C [34]: 28.8%
- viability, T/C [35]: 29.4%
- viability, T/C (second compound 3.16 µM, first compound 0.0316 µM): 42.2%
- viability, T/C (second compound 3.16 µM, first compound 0.1 µM): 41.3%
- viability, T/C (second compound 3.16 µM, first compound 0.316 µM): 34.7%
- viability, T/C (second compound 3.16 µM, first compound 1 µM): 34.8%
- viability, T/C (second compound 3.16 µM, first compound 3.16 µM): 35.9%
- viability, T/C (second compound 3.16 µM, first compound 10 µM): 44.7%
- viability, T/C (second compound 10 µM, first compound 0.0316 µM): 174%
- viability, T/C (second compound 10 µM, first compound 0.1 µM): 152%
- viability, T/C (second compound 10 µM, first compound 0.316 µM): 155%
- viability, T/C (second compound 10 µM, first compound 1 µM): 152%
- viability, T/C (second compound 10 µM, first compound 3.16 µM): 113%
- viability, T/C (second compound 10 µM, first compound 10 µM): 79.6%
